Test results published in publication PMC5656653, “Evaluation of Ga-DOTA-(D-Asp)n as bone imaging agents: D-aspartic acid peptides as carriers to bone” (Scientific Reports, 2017).
Where two headings read alike, the source gives them in different places. Where a SMILES comes first, the peptide text is derived from it. [ ]: non-standard residue; d: D form. The star is where a group is joined. DOTA = O=C(O)CN1CCN(CC(=O)O)CCN(CC(=O)*)CCN(CC(=O)O)CC1

Experiment: Biodistribution experiments in normal mice after i.v. injection
Type: in vivo
Details: i.v.; for tissue uptake dose at 10 min / tissue uptake dose at 1 h / tissue uptake dose at 3 h: male, ddY, mouse, in vivo, iv, total radioactivity; for tissue uptake dose at 10 min / tissue uptake dose at 1 h / tissue uptake dose at 3 h / F/B ratio (Femur:blood ratio): mice, mean (SD)
Experimental: Experiments with animals were conducted in strict accordance with the Guidelines for the Care and Use of Laboratory Animals of Kanazawa University. The animal experimental protocols used were approved by the Committee on Animal Experimentation of Kanazawa University (Permit Number: AP-132633). Biodistribution experiments were performed after intravenous administration of each diluted tracer solution (37–740 kBq/100 μL) to 6-week-old male ddY mice (27–32 g, Japan SLC, Inc., Hamamatsu, Japan). Four or five mice at each time point after the administration of each compound were sacrificed by decapitation at 10, 60, and 180 min post-injection. Tissues of interest were taken and weighed. Complete left femurs were isolated as representative bone samples, radioactivity was determined using gamma counters (AccuFLEX γ ARC-8001 in the case of ^18F, Hitachi, Ltd.), and background counts and physical decay were corrected during counting.

O=C(O)C[C@@H](NC(=O)[C@@H](CC(=O)O)NC(=O)[C@@H](CC(=O)O)NC(=O)[C@@H](CC(=O)O)NC(=O)[C@@H](CC(=O)O)NC(=O)[C@@H](CC(=O)O)NC(=O)[C@@H](CC(=O)O)NC(=O)[C@@H](CC(=O)O)NC(=O)[C@@H](CC(=O)O)NC(=O)[C@@H](CC(=O)O)NC(=O)[C@@H](CC(=O)O)NC(=O)CN1CCN(CC(=O)O)CCN(CC(=O)O)CCN(CC(=O)O)CC1)C(=O)O [^67Ga-DOTA-(D-Asp)11, metal not drawn] ({DOTA}-[dD][dD][dD][dD][dD][dD][dD][dD][dD][dD][dD]-OH)
tissue uptake dose at 10 min (10 min after injection, footnote b, read-out: Biodistribution of radioactivity, Stomach): 0.18 %ID
tissue uptake dose at 10 min (10 min after injection, read-out: Biodistribution of radioactivity, Blood): 1.71 %ID
tissue uptake dose at 10 min (10 min after injection, read-out: Biodistribution of radioactivity, Bone (Femur)): 11.9 %ID
tissue uptake dose at 10 min (10 min after injection, read-out: Biodistribution of radioactivity, Brain): 0.05 %ID
tissue uptake dose at 10 min (10 min after injection, read-out: Biodistribution of radioactivity, Heart): 0.65 %ID
tissue uptake dose at 10 min (10 min after injection, read-out: Biodistribution of radioactivity, Kidney): 12.8 %ID
tissue uptake dose at 10 min (10 min after injection, read-out: Biodistribution of radioactivity, Large-intestine): 0.28 %ID
tissue uptake dose at 10 min (10 min after injection, read-out: Biodistribution of radioactivity, Liver): 0.51 %ID
tissue uptake dose at 10 min (10 min after injection, read-out: Biodistribution of radioactivity, Lung): 1.24 %ID
tissue uptake dose at 10 min (10 min after injection, read-out: Biodistribution of radioactivity, Muscle): 0.58 %ID
tissue uptake dose at 10 min (10 min after injection, read-out: Biodistribution of radioactivity, Pancreas): 0.53 %ID
tissue uptake dose at 10 min (10 min after injection, read-out: Biodistribution of radioactivity, Small-intestine): 0.38 %ID
tissue uptake dose at 10 min (10 min after injection, read-out: Biodistribution of radioactivity, Spleen): 0.44 %ID
tissue uptake dose at 1 h (60 min after injection, footnote b, read-out: Biodistribution of radioactivity, Stomach): 0.04 %ID
tissue uptake dose at 1 h (60 min after injection, read-out: Biodistribution of radioactivity, Blood): 0.14 %ID
tissue uptake dose at 1 h (60 min after injection, read-out: Biodistribution of radioactivity, Bone (Femur)): 15.3 %ID
tissue uptake dose at 1 h (60 min after injection, read-out: Biodistribution of radioactivity, Brain): 0.01 %ID
tissue uptake dose at 1 h (60 min after injection, read-out: Biodistribution of radioactivity, Heart): 0.04 %ID
tissue uptake dose at 1 h (60 min after injection, read-out: Biodistribution of radioactivity, Kidney): 2.92 %ID
tissue uptake dose at 1 h (60 min after injection, read-out: Biodistribution of radioactivity, Large-intestine): 0.03 %ID
tissue uptake dose at 1 h (60 min after injection, read-out: Biodistribution of radioactivity, Liver): 0.2 %ID
tissue uptake dose at 1 h (60 min after injection, read-out: Biodistribution of radioactivity, Lung): 0.08 %ID
tissue uptake dose at 1 h (60 min after injection, read-out: Biodistribution of radioactivity, Muscle): 0.18 %ID
tissue uptake dose at 1 h (60 min after injection, read-out: Biodistribution of radioactivity, Pancreas): 0.09 %ID
tissue uptake dose at 1 h (60 min after injection, read-out: Biodistribution of radioactivity, Small-intestine): 0.07 %ID
tissue uptake dose at 1 h (60 min after injection, read-out: Biodistribution of radioactivity, Spleen): 0.13 %ID
tissue uptake dose at 3 h (180 min after injection, footnote b, read-out: Biodistribution of radioactivity, Stomach): 0.02 %ID
tissue uptake dose at 3 h (180 min after injection, read-out: Biodistribution of radioactivity, Blood): 0.08 %ID
tissue uptake dose at 3 h (180 min after injection, read-out: Biodistribution of radioactivity, Bone (Femur)): 15.4 %ID
tissue uptake dose at 3 h (180 min after injection, read-out: Biodistribution of radioactivity, Brain): 0.02 %ID
tissue uptake dose at 3 h (180 min after injection, read-out: Biodistribution of radioactivity, Heart): 0.03 %ID
tissue uptake dose at 3 h (180 min after injection, read-out: Biodistribution of radioactivity, Kidney): 1 %ID
tissue uptake dose at 3 h (180 min after injection, read-out: Biodistribution of radioactivity, Large-intestine): 0.11 %ID
tissue uptake dose at 3 h (180 min after injection, read-out: Biodistribution of radioactivity, Liver): 0.13 %ID
tissue uptake dose at 3 h (180 min after injection, read-out: Biodistribution of radioactivity, Lung): 0.05 %ID
tissue uptake dose at 3 h (180 min after injection, read-out: Biodistribution of radioactivity, Muscle): 0.06 %ID
tissue uptake dose at 3 h (180 min after injection, read-out: Biodistribution of radioactivity, Pancreas): 0.04 %ID
tissue uptake dose at 3 h (180 min after injection, read-out: Biodistribution of radioactivity, Small-intestine): 0.05 %ID
tissue uptake dose at 3 h (180 min after injection, read-out: Biodistribution of radioactivity, Spleen): 0.1 %ID
F/B ratio (Femur:blood ratio) (10 min after injection): 7.01 (0.56)
F/B ratio (Femur:blood ratio) (60 min after injection): 147.10 (71.25)
F/B ratio (Femur:blood ratio) (180 min after injection): 248.95 (170.64)
Accumulation of radioactivity in bone (in words) (normal mice): high accumulation and retention of radioactivity in bone
